According to PubChem BioAssay AID280 (DTP/NCI, 2004):
Values joined by “and” are separate entries in the source; they are usually repeats but may differ in a detail not shown here. Identical values can stand only once. Toxic doses and inconclusive results are not listed.

System: nude mice, LOX melanoma ip, survival T/C
Assay: NCI In Vivo Anticancer Drug Screen. Data for tumor model Human Amelanotic Melanoma (LOX) (intraperitoneal) in NU/NU BALB/C (nude) mice
Conditions: endpoint: median survival time, higher = longer survival
Procedure: The antitumor activity of compounds was measured in mice bearing transplantable tumors. Survival or tumor size were measured and the results are expressed as the measurement made in the treated group (T) divided by the measurement made in the vehicle treated control group (C). The tumor model used in this assay is Human Amelanotic Melanoma (LOX) (intraperitoneal) in NU/NU BALB/C (nude) mice

[1] = dose: 12.5 mg/kg/injection, schedule: Q04DX003 (ip), vehicle: saline with Tween-80
[2] = dose: 25.0 mg/kg/injection, schedule: Q04DX003 (ip), vehicle: saline with Tween-80
[3] = dose: 50.0 mg/kg/injection, schedule: Q04DX003 (ip), vehicle: saline with Tween-80
[4] = dose: 7.5 mg/kg/injection, schedule: Q04DX003 (ip), vehicle: saline with Tween-80
[5] = dose: 15.0 mg/kg/injection, schedule: Q04DX003 (ip), vehicle: saline with Tween-80
[6] = dose: 30.0 mg/kg/injection, schedule: Q04DX003 (ip), vehicle: saline with Tween-80
[7] = dose: 60.0 mg/kg/injection, schedule: Q04DX003 (ip), vehicle: saline with Tween-80
[8] = dose: 100.0 mg/kg/injection, schedule: Q04DX003 (ip), vehicle: saline with Tween-80
[9] = dose: 75.0 mg/kg/injection, schedule: Q04DX003 (ip), vehicle: saline with Tween-80
[10] = dose: 37.5 mg/kg/injection, schedule: Q04DX003 (ip), vehicle: saline with Tween-80
[11] = dose: 300.0 mg/kg/injection, schedule: Q04DX003 (ip), vehicle: saline with Tween-80

For `CCC(=O)[O][Bi]([c]1ccccc1)[c]1ccccc1`, the T/C (dose: 3.13 mg/kg/injection, schedule: Q04DX003 (ip), vehicle: Klucel (hydroxypropylcellulose) (HPC)) was 93 % of control, the T/C (dose: 6.25 mg/kg/injection, schedule: Q04DX003 (ip), vehicle: Klucel (hydroxypropylcellulose) (HPC)) was 88 % of control and the T/C (dose: 12.5 mg/kg/injection, schedule: Q04DX003 (ip), vehicle: Klucel (hydroxypropylcellulose) (HPC)) was 110 % of control. The T/C (dose: 25.0 mg/kg/injection, schedule: Q04DX003 (ip), vehicle: Klucel (hydroxypropylcellulose) (HPC)) was 100 % of control.

In the case of `[NH-]C(CCC(N)=O)C(=O)O.[NH-]C(CCC(N)=O)C(=O)O.[Zn+2]` (stereo not drawn), the T/C [1] is reported as 94 % of control, the T/C [2] is reported as 94 % of control and the T/C [3] is reported as 118 % of control.

For `CC[C@@]1(O)C(=O)OCc2c1cc1n(c2=O)Cc2cc3c(N)cccc3nc2-1`, the T/C (dose: 0.5 mg/kg/injection, schedule: Q04DX003 (ip), vehicle: saline with Tween-80) was 213 % of control, the T/C (dose: 0.86 mg/kg/injection, schedule: Q04DX003 (ip), vehicle: saline with Tween-80) was 314 % of control and the T/C (dose: 1.0 mg/kg/injection, schedule: Q04DX003 (ip), vehicle: saline with Tween-80) was 327 % of control. The T/C (dose: 1.44 mg/kg/injection, schedule: Q04DX003 (ip), vehicle: saline with Tween-80) was 314 % of control, the T/C (dose: 2.0 mg/kg/injection, schedule: Q04DX003 (ip), vehicle: saline with Tween-80) was 327 % of control and the T/C (dose: 2.4 mg/kg/injection, schedule: Q04DX003 (ip), vehicle: saline with Tween-80) was 314 % of control. For the same compound, the T/C (dose: 4.0 mg/kg/injection, schedule: Q04DX003 (ip), vehicle: saline with Tween-80) was 314 % of control and 327 % of control.

In the case of `COc1cc2c(cc1OC)-c1c3c(cc4c1[C@@H](C2)N(C)CC4)OCO3`, the T/C (dose: 32.0 mg/kg/injection, schedule: Q04DX003 (ip), vehicle: distilled water + Tween-80 + alcohol) is reported as 115 % of control, the T/C (dose: 90.0 mg/kg/injection, schedule: Q04DX003 (ip), vehicle: distilled water + Tween-80 + alcohol) is reported as 109 % of control and the T/C (dose: 150.0 mg/kg/injection, schedule: Q04DX003 (ip), vehicle: distilled water + Tween-80 + alcohol) is reported as 123 % of control.

With `O=P1(N(CCCl)CCCl)NCCCO1` (stereo not drawn) the T/C (dose: 40.0 mg/kg/injection, schedule: Q04DX003 (ip), vehicle: saline) was 111 % of control, the T/C (dose: 60.0 mg/kg/injection, schedule: Q04DX003 (ip), vehicle: saline) was 115 % of control and the T/C (dose: 90.0 mg/kg/injection, schedule: Q04DX003 (ip), vehicle: saline) was 101 % of control.

For `CC(O)C1(O)C(O)CC(OC2c3cc4c(c(O)c3[C@@H]3C[C@@]2(C)OC32C=c3cc[nH]c3=N2)C(=O)c2cccc(O)c2C4=O)OC1C` (stereo partly drawn), the T/C (dose: 3.75 mg/kg/injection, schedule: Q04DX003 (ip), vehicle: saline with Tween-80) was 108 % of control, the T/C [4] was 112 % of control and the T/C [5] was 117 % of control. The T/C [6] was 117 % of control and the T/C [7] was 91 % of control.

`O=[N+]([O-])c1ccc(N(CCO)CCO)c2c1no[n+]2[O-]` was tested, and the T/C (dose: 6.25 mg/kg/injection, schedule: Q04DX003 (ip), vehicle: saline with Tween-80) was 99 % of control, the T/C [1] was 106 % of control and the T/C [2] was 111 % of control. The T/C [3] was 93 % of control and the T/C [8] was 115 % of control.

`CC1OC(O[C@H]2/C=C/C=C/C=C/C=C/C=C/C=C/C=C/[C@H](C)[C@@H](O)[C@@H](C)[C@H](C)OC(=O)C[C@H](O)C[C@H](O)CC[C@@H](O)[C@H](O)C[C@H](O)C[C@]3(O)C[C@H](O)[C@@H](C(=O)O)[C@H](C2)O3)C(O)C(N)C1O` (stereo partly drawn) was tested, and the T/C (dose: 12.5 mg/kg/injection, schedule: Q04DX003 (ip), vehicle: saline + Tween-80 + alcohol) was 110 % of control and the T/C (dose: 25.0 mg/kg/injection, schedule: Q04DX003 (ip), vehicle: saline + Tween-80 + alcohol) was 107 % of control.

`C=COC(=O)C(Cc1ccccc1)NC(=O)OCc1ccccc1` (stereo not drawn) was tested, and the T/C [4] was 97 % of control, the T/C [5] was 101 % of control and the T/C [6] was 105 % of control. The T/C [7] was 95 % of control, the T/C [9] was 89 % of control and the T/C (dose: 120.0 mg/kg/injection, schedule: Q04DX003 (ip), vehicle: saline with Tween-80) was 104 % of control.

With `COc1ccccc1/C=C/C(=O)c1ccccc(=O)c1O` the T/C (dose: 9.38 mg/kg/injection, schedule: Q04DX003 (ip), vehicle: Klucel (hydroxypropylcellulose) (HPC)) was 98 % of control, the T/C (dose: 18.75 mg/kg/injection, schedule: Q04DX003 (ip), vehicle: Klucel (hydroxypropylcellulose) (HPC)) was 89 % of control and the T/C (dose: 37.5 mg/kg/injection, schedule: Q04DX003 (ip), vehicle: Klucel (hydroxypropylcellulose) (HPC)) was 98 % of control. The T/C (dose: 75.0 mg/kg/injection, schedule: Q04DX003 (ip), vehicle: Klucel (hydroxypropylcellulose) (HPC)) was 110 % of control and the T/C (dose: 150.0 mg/kg/injection, schedule: Q04DX003 (ip), vehicle: Klucel (hydroxypropylcellulose) (HPC)) was 103 % of control.

For `C/C(=N\NC(=S)N1CC2CCC(CC2)C1)c1nccs1`, the T/C [1] was 101 % of control, the T/C [2] was 107 % of control and the T/C [3] was 118 % of control. The T/C [8] was 118 % of control.

With `CS(=O)(=O)Nc1ccc(C(=O)CCN2CCCCCC2)cc1` the T/C [10] was 98 % of control, the T/C [9] was 123 % of control and the T/C (dose: 150.0 mg/kg/injection, schedule: Q04DX003 (ip), vehicle: saline with Tween-80) was 93 % of control. The T/C [11] was 110 % of control.

With `COc1c(O)cc2c(c1OC)-c1ccc(SC)c(=O)cc1C(NC(C)=O)CC2` (stereo not drawn) the T/C (dose: 4.0 mg/kg/injection, schedule: Q04DX003 (ip), vehicle: other) was 114 % of control, the T/C (dose: 5.0 mg/kg/injection, schedule: Q04DX003 (ip), vehicle: Klucel (hydroxypropylcellulose) (HPC)) was 151 % of control and 252 % of control and the T/C (dose: 5.9 mg/kg/injection, schedule: Q04DX003 (ip), vehicle: other) was 111 % of control and 116 % of control. For the same compound, the T/C (dose: 8.9 mg/kg/injection, schedule: Q04DX003 (ip), vehicle: other) was 117 % of control, the T/C (dose: 10.0 mg/kg/injection, schedule: Q04DX003 (ip), vehicle: Klucel (hydroxypropylcellulose) (HPC)) was 151 % of control and 305 % of control and the T/C (dose: 20.0 mg/kg/injection, schedule: Q04DX003 (ip), vehicle: other) was 151 % of control and 156 % of control.

In the case of `CC1=C[P+](c2ccccc2)(c2ccccc2)C=C(c2ccccc2)O1`, the T/C (dose: 0.38 mg/kg/injection, schedule: Q04DX003 (ip), vehicle: saline) is reported as 97 % of control and the T/C (dose: 3.0 mg/kg/injection, schedule: Q04DX003 (ip), vehicle: saline) is reported as 88 % of control.

For `COC12[C@@H]3N[C@@H]3CN1C1=C(C(=O)C(NCCSSCCNC3=C(C)C(=O)C4=C(C3=O)C(COC(N)=O)[C@]3(OC)C5N[C@@H]5CN43)=C(C)C1=O)[C@@H]2COC(N)=O` (stereo partly drawn), the T/C (dose: 1.57 mg/kg/injection, schedule: Q04DX003 (ip), vehicle: DMSO) was 121 % of control and the T/C (dose: 12.5 mg/kg/injection, schedule: Q04DX003 (ip), vehicle: DMSO) was 331 % of control.

For `Cc1c(N)nc([C@H](CC(N)=O)NC[C@H](N)C(N)=O)nc1C(=O)N[C@H](C(=O)N[C@H](C)[C@@H](O)[C@H](C)C(=O)N[C@H](C(=O)NCCc1nc(-c2nc(C(=O)NCCC[S+](C)C)cs2)cs1)[C@@H](C)O)C(OC1OC(CO)C(O)C(O)C1OC1OC(CO)C(O)C(OC(N)=O)C1O)c1cnc[nH]1` (stereo partly drawn), the T/C (dose: 2.0 mg/kg/injection, schedule: Q01DX015 (ip), vehicle: saline) was 165 % of control, the T/C (dose: 4.0 mg/kg/injection, schedule: Q01DX005 (ip), vehicle: saline) was 155 % of control and the T/C (dose: 4.0 mg/kg/injection, schedule: Q01DX015 (ip), vehicle: saline) was 159 % of control. The T/C (dose: 8.0 mg/kg/injection, schedule: Q01DX005 (ip), vehicle: saline) was 175 % of control, the T/C (dose: 8.0 mg/kg/injection, schedule: Q01DX015 (ip), vehicle: saline) was 176 % of control and the T/C (dose: 8.0 mg/kg/injection, schedule: Q04DX003 (ip), vehicle: saline) was 160 % of control. For the same compound, the T/C (dose: 16.0 mg/kg/injection, schedule: Q01DX015 (ip), vehicle: saline) was 87 % of control, the T/C (dose: 24.0 mg/kg/injection, schedule: Q04DX003 (ip), vehicle: saline) was 110 % of control and the T/C (dose: 32.0 mg/kg/injection, schedule: Q01DX001 (ip), vehicle: saline) was 150 % of control. The T/C (dose: 32.0 mg/kg/injection, schedule: Q01DX005 (ip), vehicle: saline) was 175 % of control, the T/C (dose: 32.0 mg/kg/injection, schedule: Q04DX003 (ip), vehicle: saline) was 176 % of control and the T/C (dose: 36.0 mg/kg/injection, schedule: Q04DX003 (ip), vehicle: saline) was 105 % of control. The T/C (dose: 64.0 mg/kg/injection, schedule: Q01DX001 (ip), vehicle: saline) was 151 % of control and the T/C (dose: 128.0 mg/kg/injection, schedule: Q01DX001 (ip), vehicle: saline) was 150 % of control.

For `O=C(Nc1cc(Cl)ccc1C(=O)O)c1cccc(C[n+]2ccccc2)c1`, the T/C [10] was 94 % of control and 100 % of control, the T/C [9] was 105 % of control and 90 % of control and the T/C [11] was 89 % of control.
